# Source: ChEMBL document CHEMBL4251615, “Discovery of anilino-furo[2,3-d]pyrimidine derivatives as dual inhibitors of EGFR/HER2 tyrosine kinase and their anticancer activity” (Eur J Med Chem, 2018)
# How the values were obtained:
# Type in all cases: functional
# [1] = system: CCRF-CEM; experiment: Growth inhibition of human CCRF-CEM cells assessed as cell growth at 10 uM incubated for 48 hrs by sulforhodamine B assay relative to control; settings: read-out: Activity
# [2] = system: HL-60(TB); experiment: Growth inhibition of human HL-60(TB) cells assessed as cell growth at 10 uM incubated for 48 hrs by sulforhodamine B assay relative to control; settings: HL-60, 48 h, read-out: Activity
# [3] = system: MOLT-4; experiment: Growth inhibition of human MOLT4 cells assessed as cell growth at 10 uM incubated for 48 hrs by sulforhodamine B assay relative to control; settings: MOLT-4, 48 h, read-out: Activity
# [4] = system: RPMI-8226; experiment: Growth inhibition of human RPMI8226 cells assessed as cell growth at 10 uM incubated for 48 hrs by sulforhodamine B assay relative to control; settings: RPMI-8226, 48 h, read-out: Activity
# [5] = system: SR; experiment: Growth inhibition of human SR cells assessed as cell growth at 10 uM incubated for 48 hrs by sulforhodamine B assay relative to control; settings: read-out: Activity
# [6] = system: A549; experiment: Growth inhibition of human A549/ATCC cells assessed as cell growth at 10 uM incubated for 48 hrs by sulforhodamine B assay relative to control; settings: A549, 48 h, read-out: Activity
# [7] = system: EKVX; experiment: Growth inhibition of human EKVX cells assessed as cell growth at 10 uM incubated for 48 hrs by sulforhodamine B assay relative to control; settings: read-out: Activity
# [8] = system: NCI-H23; experiment: Growth inhibition of human NCI-H23 cells assessed as cell growth at 10 uM incubated for 48 hrs by sulforhodamine B assay relative to control; settings: NCI-H23, 48 h, read-out: Activity
# [9] = system: NCI-H522; experiment: Growth inhibition of human NCI-H522 cells assessed as cell growth at 10 uM incubated for 48 hrs by sulforhodamine B assay relative to control; settings: NCI-H522, 48 h, read-out: Activity
# [10] = system: COLO 205; experiment: Growth inhibition of human COLO205 cells assessed as cell growth at 10 uM incubated for 48 hrs by sulforhodamine B assay relative to control; settings: COLO 205, 48 h, read-out: Activity
# [11] = system: HCC 2998; experiment: Growth inhibition of human HCC2998 cells assessed as cell growth at 10 uM incubated for 48 hrs by sulforhodamine B assay relative to control; settings: HCC 2998, 48 h, read-out: Activity
# [12] = system: HCT-116; experiment: Growth inhibition of human HCT116 cells assessed as cell growth at 10 uM incubated for 48 hrs by sulforhodamine B assay relative to control; settings: HCT-116, 48 h, read-out: Activity
# [13] = system: HT-29; experiment: Growth inhibition of human HT-29 cells assessed as cell growth at 10 uM incubated for 48 hrs by sulforhodamine B assay relative to control; settings: HT-29, 48 h, read-out: Activity
# [14] = system: KM12; experiment: Growth inhibition of human KM12 cells assessed as cell growth at 10 uM incubated for 48 hrs by sulforhodamine B assay relative to control; settings: KM12, 48 h, read-out: Activity
# [15] = system: SW-620; experiment: Growth inhibition of human SW620 cells assessed as cell growth at 10 uM incubated for 48 hrs by sulforhodamine B assay relative to control; settings: SW-620, 48 h, read-out: Activity
# [16] = system: SNB-75; experiment: Growth inhibition of human SNB75 cells assessed as cell growth at 10 uM incubated for 48 hrs by sulforhodamine B assay relative to control; settings: SNB-75, 48 h, read-out: Activity
# [17] = system: Malme-3M; experiment: Growth inhibition of human MALME-3M cells assessed as cell growth at 10 uM incubated for 48 hrs by sulforhodamine B assay relative to control; settings: read-out: Activity
# [18] = system: M14; experiment: Growth inhibition of human M14 cells assessed as cell growth at 10 uM incubated for 48 hrs by sulforhodamine B assay relative to control; settings: M14, 48 h, read-out: Activity
# [19] = system: MDA-MB-435; experiment: Growth inhibition of human MDA-MB-435 cells assessed as cell growth at 10 uM incubated for 48 hrs by sulforhodamine B assay relative to control; settings: MDA-MB-435, 48 h, read-out: Activity
# [20] = system: SK-MEL-2; experiment: Growth inhibition of human SK-MEL-2 cells assessed as cell growth at 10 uM incubated for 48 hrs by sulforhodamine B assay relative to control; settings: SK-MEL-2, 48 h, read-out: Activity
# [21] = system: SK-MEL-28; experiment: Growth inhibition of human SK-MEL-28 cells assessed as cell growth at 10 uM incubated for 48 hrs by sulforhodamine B assay relative to control; settings: SK-MEL-28, 48 h, read-out: Activity
# [22] = system: SK-MEL-5; experiment: Growth inhibition of human SK-MEL-5 cells assessed as cell growth at 10 uM incubated for 48 hrs by sulforhodamine B assay relative to control; settings: SK-MEL-5, 48 h, read-out: Activity
# [23] = system: UACC-62; experiment: Growth inhibition of human UACC62 cells assessed as cell growth at 10 uM incubated for 48 hrs by sulforhodamine B assay relative to control; settings: UACC-62, 48 h, read-out: Activity
# [24] = system: OVCAR-5; experiment: Growth inhibition of human OVCAR5 cells assessed as cell growth at 10 uM incubated for 48 hrs by sulforhodamine B assay relative to control; settings: OVCAR-5, 48 h, read-out: Activity
# [25] = system: OVCAR-8; experiment: Growth inhibition of human OVCAR8 cells assessed as cell growth at 10 uM incubated for 48 hrs by sulforhodamine B assay relative to control; settings: OVCAR-8, 48 h, read-out: Activity
# [26] = system: SK-OV-3; experiment: Growth inhibition of human SKOV3 cells assessed as cell growth at 10 uM incubated for 48 hrs by sulforhodamine B assay relative to control; settings: SK-OV-3, 48 h, read-out: Activity
# [27] = system: 786-0; experiment: Growth inhibition of human 786-0 cells assessed as cell growth at 10 uM incubated for 48 hrs by sulforhodamine B assay relative to control; settings: 786-0, 48 h, read-out: Activity
# [28] = system: SN12C; experiment: Growth inhibition of human SN12C cells assessed as cell growth at 10 uM incubated for 48 hrs by sulforhodamine B assay relative to control; settings: read-out: Activity
# [29] = system: TK-10; experiment: Growth inhibition of human TK10 cells assessed as cell growth at 10 uM incubated for 48 hrs by sulforhodamine B assay relative to control; settings: TK-10, 48 h, read-out: Activity
# [30] = system: UO-31; experiment: Growth inhibition of human UO31 cells assessed as cell growth at 10 uM incubated for 48 hrs by sulforhodamine B assay relative to control; settings: UO-31, 48 h, read-out: Activity
# [31] = system: PC-3; experiment: Growth inhibition of human PC3 cells assessed as cell growth at 10 uM incubated for 48 hrs by sulforhodamine B assay relative to control; settings: PC-3, 48 h, read-out: Activity
# [32] = system: DU-145; experiment: Growth inhibition of human DU145 cells assessed as cell growth at 10 uM incubated for 48 hrs by sulforhodamine B assay relative to control; settings: DU-145, 48 h, read-out: Activity
# [33] = system: Hs-578T; experiment: Growth inhibition of human Hs 578T cells assessed as cell growth at 10 uM incubated for 48 hrs by sulforhodamine B assay relative to control; settings: read-out: Activity
SMILES,growth at 10 µM [1],growth at 10 µM [2],growth at 10 µM [3],growth at 10 µM [4],growth at 10 µM [5],growth at 10 µM [6],growth at 10 µM [7],growth at 10 µM [8],growth at 10 µM [9],growth at 10 µM [10],growth at 10 µM [11],growth at 10 µM [12],growth at 10 µM [13],growth at 10 µM [14],growth at 10 µM [15],growth at 10 µM [16],growth at 10 µM [17],growth at 10 µM [18],growth at 10 µM [19],growth at 10 µM [20],also measured
CCOC(=O)c1c(C)oc2ncnc(Nc3ccc(OCc4ccc(Cl)cc4)cc3)c12,110%,91.7%,109%,111%,92.1%,86.5%,102%,95.4%,84%,111%,108%,98.7%,94.4%,101%,106%,116%,123%,102%,104%,105%,growth at 10 µM [21]: 101%; growth at 10 µM [22]: 95.8%; growth at 10 µM [23]: 87.7%; growth at 10 µM [24]: 100%; growth at 10 µM [25]: 107%; growth at 10 µM [26]: 88%; growth at 10 µM [27]: 98%; growth at 10 µM [28]: 97.8%; growth at 10 µM [29]: 87.4%; growth at 10 µM [30]: 99.5%; growth at 10 µM [31]: 100%; growth at 10 µM [32]: 106%; growth at 10 µM [33]: 111%
CCCNC(=O)c1c(C)oc2ncnc(Nc3cccc(Cl)c3)c12,93.9%,96.3%,95.4%,95.4%,86%,82.7%,98.8%,91.5%,54.9%,104%,123%,105%,93.8%,94.6%,106%,94.6%,121%,115%,103%,85.6%,growth at 10 µM [21]: 112%; growth at 10 µM [22]: 89.9%; growth at 10 µM [23]: 83.4%; growth at 10 µM [24]: 112%; growth at 10 µM [25]: 96.8%; growth at 10 µM [26]: 85.6%; growth at 10 µM [27]: 105%; growth at 10 µM [28]: 99.4%; growth at 10 µM [29]: 94.1%; growth at 10 µM [30]: 72.4%; growth at 10 µM [31]: 81.9%; growth at 10 µM [32]: 90%; growth at 10 µM [33]: 104%
CCOC(=O)c1c(C)oc2ncnc(Nc3cccc(F)c3)c12,98.8%,76.4%,62.5%,107%,78.6%,93%,101%,97.8%,94.3%,104%,103%,88.1%,89.8%,100%,94.2%,107%,131%,98.2%,101%,92.9%,growth at 10 µM [21]: 98.2%; growth at 10 µM [22]: 99%; growth at 10 µM [23]: 84%; growth at 10 µM [24]: 102%; growth at 10 µM [25]: 105%; growth at 10 µM [26]: 101%; growth at 10 µM [27]: 95.7%; growth at 10 µM [28]: 89.1%; growth at 10 µM [29]: 95.9%; growth at 10 µM [30]: 101%; growth at 10 µM [31]: 94.7%; growth at 10 µM [32]: 99%; growth at 10 µM [33]: 99%
Cc1oc2ncnc(Nc3cccc(F)c3)c2c1C(=O)O,110%,35.2%,102%,107%,104%,101%,101%,97.6%,93.9%,109%,102%,103%,110%,102%,101%,85.8%,107%,112%,104%,107%,growth at 10 µM [21]: 103%; growth at 10 µM [22]: 99.6%; growth at 10 µM [23]: 90.2%; growth at 10 µM [24]: 97.6%; growth at 10 µM [25]: 112%; growth at 10 µM [26]: 102%; growth at 10 µM [27]: 92%; growth at 10 µM [28]: 89.7%; growth at 10 µM [29]: 105%; growth at 10 µM [30]: 92.7%; growth at 10 µM [31]: 108%; growth at 10 µM [32]: 107%; growth at 10 µM [33]: 99.9%
